Marks after values point to notes of the source that are not given here.
Experiments:
[1] = Study S.241.1.109: single and multiple dose pharmacokinetics 2 mg TID; assay type: in vivo, human; settings: for Tmax: median (min, max)
Experimental: In an open-label, randomized, parallel-group study in 36 healthy, male and female subjects (19-45 years), subjects received a 2 mg single dose of cilansetron on Day 1 and 2 mg TID on Days 2-7. The morning doses on Days 1 and 7 were administered immediately after a standard breakfast. Serial blood samples for the measurement of single-dose and steady-state pharmacokinetics of cilansetron and its main metabolites, (4R)-hydroxy cilansetron and (4S)-hydroxy cilansetron, were collected on Day 1 (single dose) up to 24 hours postdose and on Day 7 (multiple dose) up to 8 hours postdose.

human 5-HT3 receptor = molecular target: T1, human 5-HT3 receptor (Homo sapiens, UniProt P46098); assay: 5-HT3 receptor binding
T1 sequence (P46098 24-478): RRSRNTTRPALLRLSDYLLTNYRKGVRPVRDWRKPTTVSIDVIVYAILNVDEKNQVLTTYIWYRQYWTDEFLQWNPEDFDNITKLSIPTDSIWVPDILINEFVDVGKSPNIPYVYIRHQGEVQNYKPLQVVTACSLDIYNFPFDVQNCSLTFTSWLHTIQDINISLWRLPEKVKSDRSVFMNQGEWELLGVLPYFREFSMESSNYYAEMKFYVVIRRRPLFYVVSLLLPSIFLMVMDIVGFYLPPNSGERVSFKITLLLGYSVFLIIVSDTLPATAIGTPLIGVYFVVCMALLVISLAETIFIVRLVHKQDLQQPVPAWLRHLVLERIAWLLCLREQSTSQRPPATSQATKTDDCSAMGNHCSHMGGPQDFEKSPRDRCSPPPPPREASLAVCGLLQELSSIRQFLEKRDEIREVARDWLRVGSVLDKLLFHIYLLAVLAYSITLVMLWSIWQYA

[2] = Study S241.1.111: relative bioavailability and food effect, 2 mg tablet vs oral solution; assay type: in vivo, human; settings: for Tmax: median
Experimental: Subjects were randomized to receive a cilansetron 2 mg tablet after an overnight fast, a cilansetron 2 mg tablet after a high-fat breakfast, and a cilansetron 2 mg oral solution after an overnight fast during the three treatment periods, with a 7-day washout between periods. Serial blood sampling was performed up to 24 hours following each treatment, and plasma pharmacokinetics parameters for cilansetron and its metabolites, (4R)-hydroxy cilansetron and (4S)-hydroxy cilansetron, were estimated. FIG. 4, FIG. 5, and FIG. 6 present mean plasma concentration-time profiles for cilansetron and its metabolites following treatment with the cilansetron tablet and oral solution. Table 2.7.1.2.2 presents descriptive statistics for the pharmacokinetic parameters of cilansetron and its metabolites for the tablet and oral solution, and the results of statistical comparisons between treatments (tablet versus solution).
Subjects were randomized to receive a cilansetron 2 mg tablet after an overnight fast, a cilansetron 2 mg tablet after a high-fat breakfast, and a cilansetron 2 mg oral solution after an overnight fast during the three treatment periods, with a 7-day washout between periods. Serial blood sampling was performed up to 24 hours following each treatment and plasma pharmacokinetics parameters for cilansetron and its metabolites, (4R)-hydroxy cilansetron and (4S)-hydroxy cilansetron, were estimated. FIG. 7, FIG. 8, and FIG. 9 present mean plasma concentration-time profiles for cilansetron and its metabolites following treatment with the cilansetron tablet under fasted conditions and following a high-fat meal. Table 2.7.1.2.4 presents descriptive statistics for the pharmacokinetic parameters of cilansetron and its metabolites for the tablet under fed and fasted conditions, and the results of statistical comparisons between treatments (fed versus fasted).

[3] = Study S.241.1.109: interaction with ketoconazole 200 mg BID; assay type: in vivo, human; settings: for AUC(0-τ) / Cmax / Tmax: steady state; for AUC(0-τ): AUC(0-8); for AUC(0-τ) / Cmax: arith. mean; for Tmax: median
Experimental: (§1) In an open-label, randomized, parallel-group study in three groups of 12 healthy, male and female subjects (aged 19 to 45 years), subjects received a 2 mg single dose of cilansetron on Day 1, 2 mg TID on Days 2-13, and a 2 mg single dose on Day 14. […] All morning doses of cilansetron and enzyme inhibitors were administered immediately after a standard breakfast. […] For each treatment group, log-transformed cilansetron AUC(0-τ) and Cmax values on Day 14 (cilansetron+enzyme inhibitor) were compared statistically versus values on Day 7 (cilansetron alone).

[4] = Study S.241.1.109: interaction with paroxetine 20 mg QD; assay type: in vivo, human; settings: for AUC(0-τ) / Cmax / Tmax: steady state; for AUC(0-τ): AUC(0-8); for AUC(0-τ) / Cmax: arith. mean; for Tmax: median
Experimental: as §1
FIG. 50, FIG. 51, and FIG. 52 present geometric mean steady-state plasma concentration-time profiles for cilansetron and its 4-hydroxy metabolites in the absence and presence of concomitant paroxetine. […] These increases in exposure are not clinically significant.

[5] = Study S.241.1.109: interaction with fluvoxamine 50 mg QD; assay type: in vivo, human; settings: for AUC(0-τ) / Cmax / Tmax: steady state; for AUC(0-τ): AUC(0-8); for AUC(0-τ) / Cmax: arith. mean; for Tmax: median
Experimental: as §1
FIG. 42, FIG. 43, and FIG. 44 present geometric mean steady-state plasma concentration-time profiles for cilansetron and its 4-hydroxy metabolites in the absence and presence of concomitant fluvoxamine.

[6] = 2 mg tablet, fasted, single dose
[7] = Cilansetron 2 mg TID + Ketoconazole 200 mg twice daily
[8] = Cilansetron 2 mg TID alone (ketoconazole group)
[9] = cilansetron + ketoconazole / cilansetron alone, ANOVA of log-transformed data
[10] = Cilansetron 2 mg TID + Paroxetine 20 mg QD
[11] = Cilansetron 2 mg TID alone (paroxetine group)
[12] = cilansetron + paroxetine / cilansetron alone, ANOVA of log-transformed data
[13] = Cilansetron 2 mg TID + Fluvoxamine 50 mg once daily
[14] = Cilansetron 2 mg TID alone (fluvoxamine group)
[15] = cilansetron + fluvoxamine / cilansetron alone, ANOVA of log-transformed data

## Cc1nccn1CC1CCc2c(c3cccc4c3n2CC[C@@H]4O)C1=O (stereo partly drawn) [(4S)-hydroxy cilansetron]
[1]; 2 mg TID, Day 7
  AUC(0-τ): 7.91 (19) ng · h/mL
  Cmax: 1.25 (18) ng/mL
[1]; 2 mg single dose, Day 1
  AUC(0-inf): 7.42 (20) ng · h/mL
  AUC(0-τ): 3.26 (19) ng · h/mL
  Cmax: 0.605 (22) ng/mL
  T½: 7.48 (26) h
[1]; AUC(0-τ)
  AUC accumulation ratio Day 7/Day 1: 239^d %
[1]; AUC(0-τ) Day 7 to AUC(0-inf) Day 1
  Linearity Ratio: 108%
[1]; Day 1
  Tmax: 4.00 (1.50, 6.00)^b h
[1]; Day 7:Day 1, AUC(0-τ) and Cmax
  Accumulation following TID dosing (mean increase): 105-139%
[1]; Day 7
  Tmax: 3.00 (1.75, 4.00)^b h
[1]; after cilansetron dosing
  Time of peak concentration: 3 to 4 h
[1]; approximate mean
  half-life: ~7.5 h
[1]; human, in vivo
  AUC(0-τ) (Day 7) to AUC(0-inf) (Day 1) mean ratio: 1.08
  Cmax accumulation ratio Day 7/Day 1: 205^e %
[1]; in vivo
  Accumulation following TID dosing: greater than 2 fold
Human 5-HT3 receptor
  pKi: 8.0
[2]; 2 mg oral solution, fasted
  AUC(0-inf): 7.20 (23) ng · h/mL
  AUC(0-last): 5.82 (24) ng · h/mL
  Cmax: 0.607 (19) ng/mL
  T½: 7.13 (25) h
  Tmax: 3.00 h
[2]; [6]
  AUC(0-inf): 7.31 (22) ng · h/mL
  AUC(0-last): 5.98 (22) ng · h/mL
  Cmax: 0.637 (17) ng/mL
  T½: 7.26 (32) h
[2]; 2 mg tablet, fasted
  Tmax: 3.00 h
[2]; 2 mg tablet, fed
  AUC(0-inf): 7.54 (19) ng · h/mL
  Cmax: 0.602 (17) ng/mL
  T½: 7.94 (34) h
  Tmax: 4.00 h
[2]; 2 mg tablet, fed (high-fat breakfast)
  AUC(0-last): 6.10 (19) ng · h/mL
[3]; [7]
  AUC(0-τ): 13.5 ng·h/mL
  Cmax: 2.29 ng/mL
  Tmax: 2.00 h
[3]; [8]
  AUC(0-τ): 8.42 ng·h/mL
  Cmax: 1.35 ng/mL
  Tmax: 3.00 h
[3]; [9]
  AUC(0-τ) Ratio (Treatment B/A): 163%
  Cmax Ratio (Treatment B/A): 174%
[4]; [10]
  AUC(0-τ): 7.62 ng·h/mL
  Cmax: 1.23 ng/mL
  Tmax: 3.00 h
[4]; [11]
  AUC(0-τ): 7.97 ng·h/mL
  Cmax: 1.22 ng/mL
  Tmax: 3.00 h
[4]; [12]
  AUC(0-τ) Ratio (Treatment B/A): 99%
  Cmax Ratio (Treatment B/A): 105%
[5]; [13]
  AUC(0-τ): 7.17 ng·h/mL
  Cmax: 1.07 ng/mL
  Tmax: 2.00 h
[5]; [14]
  AUC(0-τ): 7.29 ng·h/mL
  Cmax: 1.17 ng/mL
  Tmax: 3.00 h
[5]; [15]
  AUC(0-τ) Ratio (Treatment B/A): 101%
  Cmax Ratio (Treatment B/A): 93%

Source: US20090176817A1, “Method of Treatment of Diarrhea-Predominant Irritable Bowel Syndrome in a Subject” (priority 2005, published 2009)
